In patent publication US20170216252A1, “ANTI-BACTERIAL PYRUVATE KINASE MODULATOR COMPOUNDS, COMPOSITIONS, USES AND METHODS” (SIMON FRASER UNIVERSITY, priority 2014, published 2017):
Converted amounts (≈) assume the structure as drawn. Where two headings read alike, the source gives them in different places.

Experiments:
MRSA PK = molecular target: T1, MRSA PK (Staphylococcus aureus, UniProt Q6GG09); experiment: MRSA PK activity, continuous LDH-coupled assay; type: biochemical, S. aureus (MRSA strain Sanger 252); details: for inhibition at 1 µM / inhibition at 10 µM: read-out: % inhibition at the highest concentration tested (IC50)
T1 construct: His tag (pET-28a(+) vector) (N); made in house; host or cells: E. coli BL-21 (DE3)
T1 sequence (Q6GG09 whole entry): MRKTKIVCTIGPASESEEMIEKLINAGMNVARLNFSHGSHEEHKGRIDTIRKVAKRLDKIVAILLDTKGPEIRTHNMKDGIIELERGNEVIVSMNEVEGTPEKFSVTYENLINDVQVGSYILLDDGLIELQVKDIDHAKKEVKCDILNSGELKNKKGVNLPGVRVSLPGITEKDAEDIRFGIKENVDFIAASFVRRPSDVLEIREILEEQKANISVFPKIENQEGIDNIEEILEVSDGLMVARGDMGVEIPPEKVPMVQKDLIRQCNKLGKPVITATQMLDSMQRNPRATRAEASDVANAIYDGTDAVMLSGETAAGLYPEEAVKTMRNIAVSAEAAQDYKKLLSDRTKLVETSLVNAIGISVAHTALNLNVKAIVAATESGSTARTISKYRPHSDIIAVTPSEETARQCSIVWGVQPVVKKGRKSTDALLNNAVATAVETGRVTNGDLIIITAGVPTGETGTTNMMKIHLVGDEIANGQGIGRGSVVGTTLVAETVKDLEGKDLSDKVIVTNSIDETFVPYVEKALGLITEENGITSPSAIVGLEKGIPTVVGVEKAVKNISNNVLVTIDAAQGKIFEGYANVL
Excerpt: Genomic DNA of MRSA strain Sanger 252 extracted using DNeasy Tissue Kit™ (Qiagen™) was used as a template to generate the His-tagged MRSA PK. Human cDNA from MCF-7 breast cancer cell line (courtesy of Dr. J Wong, BC Cancer Research Center (Vancouver, Canada) was used as a template to generate the full-length human M2 PK enzyme. The following primer sets were used creating appropriate restriction sites (NdeI and XhoI sites underlined): For cloning of MRSA PK: M27F 5′-[…]-3′ and M27R 5′-[…]-3′, for cloning of human M2 PK isoform: hM2F 5′-[…]-3′ and hM2R 5′-[…]-3′. The resulting PCR fragments for each construct were cloned into the NdeI and XhoI unique sites of the bacterial expression vector pET-28a (+) (Novagen™). […] The sequence and the correct reading frame of all constructs were verified by sequencing. Human M1, R and L PK constructs in pET-28-a(+) vectors (courtesy of Dr. L. Cantley, Harvard Medical, School (Boston, USA)) were used to generate relevant recombinant His-tagged human PK isoforms.
MRSA and human constructs in pET-28a(+) were used to express relevant recombinant PK proteins in E. coli BL-21 (DE3). The proteins were expressed and purified using Ni-NTA agarose (Qiagen™) according to the manufacturer's protocol. Briefly, cells were grown to an absorbance of 0.4-0.5 at 600 nm in 2×YT medium, then induced with 0.1 mM IPTG for 3 h at 20° C. Cells were lysed by sonication on ice (3×10-s bursts with a 30-s recovery between bursts) in lysis buffer (0.2 mg/ml lysozyme, 50 mM Tris pH 7.5, 10 mM MgCl2, 200 mM NaCl, 100 mM KCl, 10% glycerol, 10 mM imidazole, 0.5% NP-40 and 1 mM DTT containing Complete™ protease inhibitor). Cell lysates were cleared by centrifugation (18,000×g in a Beckman™ JA-20 rotor) for 20 min at 4° C. and PK isoforms were purified by batch binding to Ni-NTA resin. The resins were then packed in columns (1×2 cm) and washed with 400 column volumes lysis buffer containing 30 mM imidazole. His-tagged PK isoforms were eluted with the same buffer containing 300 mM imidazole. The proteins were dialyzed overnight at 4° C. against 2000 volumes of ice-cold 30 mM Tris pH 7.5, 25 mM KCl, 5 mM MgCl2, 10% glycerol and 1 mM DTT to remove imidazole. All purification steps were done at 4° C.; enzymes were flash-frozen and stored at −70° C. […] Purity and physical integrity of proteins were assessed using SDS-polyacrylamide gel electrophoresis (SDS-PAGE) followed by coomassie blue staining. Protein concentration was estimated by Bradford assay (Bio-Rad Protein Assay™) using bovine serum albumin as a standard.
Candidate MRSA PK inhibitors were assayed for their ability to inhibit enzymatic activities of MRSA and human PKs. PK activity was determined using a continuous assay coupled to lactate dehydrogenase (LDH) in which the change in absorbance at 340 nm owing to oxidation of NADH was measured using a Benchmark Plus™ microplate spectrophotometer (Bio-Rad Laboratories, Hercules, Calif.). […] Reactions were initiated by the addition of 15 nM of one of the PK enzymes. PK activity proportional to the rate of change at 340 nm was expressed as specific activity (μmol/min/mg), which is defined as the amount of PK that catalyzes the formation of one micromole of either product per minute. Inhibitors were dissolved in DMSO with the final concentration of the solvent never exceeding 1% of the assay volume. IC50 values were calculated by curve fitting on a four-parameter dose-response model with variable slope using Graphpad Prism 5.0™ (GraphPad™ Software Inc., La Jolla, Calif.). […] Reactions were performed at 30° C. for up to 5 min. All values determined represent at least two measurements, in triplicate (Tables 1-6) or duplicate unless mentioned otherwise.

S. aureus ATCC 29213 = experiment: In vitro susceptibility, broth microdilution MIC; type: cell-based, Staphylococcus aureus; details: Staphylococcus aureus, ATCC29213, Tables 1-6 and text; minimum concentration to give >98% inhibition of growth; read-out: MIC
Procedure: The antimicrobial activities of PK inhibitor candidates were determined using the 96-well microtiter standard 2-fold serial broth microdilution method as described by CLSI (formerly NCCLS) with the various gram-positive and gram-negative bacteria species mentioned above. Bacteria from a single colony were grown, overnight in either BHI Broth (VRE), mueller hinton broth (S. aureus 29213; MRSA USA400) or L-broth (E. coli, P. aeruginosa, S. typhimuriu, K. Pneumonia and A. baumannii). […] Culture plates were incubated for 18-24 h at 37° C., and optical density at 600 nm (OD600) was measured using a Benchmark Plus™ microplate spectrophotometer (Bio-Rad™). The absorbance control values for the series containing CAMHB and inhibitor were subtracted as background from the corresponding infected wells. The MIC was defined as the lowest concentration of test compound leading to complete inhibition of cell growth in relationship to compound-free control wells as determined by optical density. […] All assays were run in triplicate (Tables 1-6) or duplicate. Experiments were replicated at least twice to verify reproducibility using the above conditions.

[1] = Tables 1-6, 2 mM ADP, 10 mM PEP, 15 nM PK, read-out: IC50

Row | Structure (SMILES) | MIC (S. aureus ATCC 29213) [µg/mL] | IC50 (MRSA PK) [nM] | inhibition at 10 µM (MRSA PK) [%] | also measured
1 | Brc1ccc2cc(-c3ccc(-c4cc5ccc(Br)cc5[nH]4)cc3)[nH]c2c1 [Compound 33a, 1,4-bis(6-bromo-1H-indol-2-yl)benzene] | > 64 | – | – | inhibition at 1 µM (MRSA PK): 54%
2 | Brc1ccc2cc(-c3ccc(-c4cc5ccc(Br)cc5[nH]4)s3)[nH]c2c1 [Compound 33b, 2,5-bis(6-bromo-1H-indol-2-yl)thiophene] | > 64 | – | – | inhibition at 1 µM (MRSA PK): 28%
3 | Brc1ccc2cc(/C=C/c3ccccc3)[nH]c2c1 [Compound 36a, (E)-6-bromo-2-styryl-1H-indole] | > 64 | 25 | – | –
4 | Brc1ccc(/C=C/c2cc3ccc(Br)cc3[nH]2)cc1 [Compound 36b, (E)-6-bromo-2-(4-bromostyryl)-1H-indole] | > 64 | 1 | – | –
5 | CC(=O)c1c(/C=C/c2ccccc2)[nH]c2cc(Br)ccc12 [Compound 38a, (E)-1-(6-bromo-2-styryl-1H-indol-3-yl)ethanone] | > 64 | > 20000 | – | –
6 | CC(=O)c1c(CCc2ccccc2)[nH]c2cc(Br)ccc12 [Compound 39a, 1-(6-bromo-2-phenethyl-1H-indol-3-yl)ethanone] | > 64 | 608 | – | –
7 | CC(=O)c1c(CCc2ccc(Cl)cc2)[nH]c2cc(Br)ccc12 [Compound 39b, 1-(6-bromo-2-(4-chlorophenethyl)-1H-indol-3-yl)ethanone] | 4 (≈ 10.6 µM) | 28 | – | –
8 | CC(C)C(=O)c1c(CCc2ccc(Cl)cc2)[nH]c2cc(Br)ccc12 [Compound 39c, 1-(6-bromo-2-(4-chlorophenethyl)-1H-indol-3-yl)-2-methylpropan-1-one] | 4 (≈ 9.88 µM) | 28 | – | –
9 | COC(=O)c1c(-c2cc3cc(Br)c(Br)cc3[nH]2)[nH]c2cc(Br)c(Br)cc12 [Compound 39d] | 4 (≈ 6.6 µM) | 2.1 | – | –
10 | O=C(c1cc2ccc(Br)cc2[nH]1)c1cc2ccccc2cc1O [Compound 42, (6-Bromo-1H-indol-2-yl)(3-hydroxynaphthalen-2-yl)methanone] | > 64 | – | 72 | –
11 | Brc1ccc2[nH]c(-c3ccc(-c4cc5cc(Br)ccc5[nH]4)s3)cc2c1 [Compound 43, 2,5-bis(5-Bromo-1H-indol-2-yl)thiophene] | > 64 | – | 50 | –
12 | C(=C\c1cc2ccccc2[nH]1)/c1cc2ccccc2[nH]1 [Compound 44] | > 64 | – | 63 | –
13 | Brc1ccc2[nH]c(C#Cc3cc4cc(Br)ccc4[nH]3)cc2c1 [Compound 45, 1,2-bis(5-Bromo-1H-indol-2-yl)ethyne] | > 64 | – | 60 | –
14 | c1ccc2[nH]c(-c3ccc(-c4cc5ccccc5[nH]4)cc3)cc2c1 [Compound 46] | > 16 | – | 52 | –
15 | Brc1ccc2[nH]c(-c3ccc(-c4cc5ccc(Br)cc5[nH]4)s3)cc2c1 [Compound 47, 6-Bromo-2-(5-(5-bromo-1H-indol-2-yl)thiophen-2-yl)-1H-indole] | > 64 | – | 52 | –
16 | Cn1c(C#Cc2cc3cc(Br)ccc3[nH]2)cc2cc(Br)ccc21 [Compound 48, 5-Bromo-2-((5-bromo-1H-indol-2-yl)ethynyl)-1-methyl-1H-indole] | > 64 | – | 60 | –

Row | Structure (SMILES) | MIC (S. aureus ATCC 29213) [µg/mL] | IC50 (MRSA PK) [nM] | inhibition at 10 µM (MRSA PK) [%] | also measured
17 | Brc1ccc2cc(-c3ccc(-c4cc5ccc(Br)cc5[nH]4)nn3)[nH]c2c1 [Compound 49, 3,6-bis(6-Bromo-1H-indol-2-yl)pyridazine] | > 32 | – | 70 | –
18 | O=C(Nc1nc2cc(Br)ccc2s1)c1cc(Br)ccc1O [Compound 50, 5-Bromo-N-(5-bromobenzo[d]thiazol-2-yl)-2-hydroxybenzamide] | > 64 | – | 60 | –
19 | O=C(Nc1nc2ccc(Br)cc2s1)c1cc(Br)ccc1O [Compound 51, 5-Bromo-N-(6-bromobenzo[d]thiazol-2-yl)-2-hydroxybenzamide] | > 64 | – | – | IC50 (MRSA PK; [1]): 3 nM
20 | O=C(Nc1ccc(Br)cc1)c1cc2ccccc2[nH]1 [Compound 52] | > 32 | – | 67 | –
21 | O=C(Nc1nc2cc(Br)ccc2s1)c1cc2ccccc2[nH]1 [Compound 53, N-(5-Bromobenzo[d]thiazol-2-yl)-1H-indole-2-carboxamide] | > 64 | – | – | IC50 (MRSA PK; [1]): 50.9 nM
22 | O=C(Nc1nc2ccc(Br)cc2s1)c1cc2ccccc2[nH]1 [Compound 54, N-(6-Bromobenzo[d]thiazol-2-yl)-1H-indole-2-carboxamide] | > 64 | – | – | IC50 (MRSA PK; [1]): 11.1 nM
23 | Brc1ccc(-c2cc3ccc(Br)cc3[nH]2)cc1 [Compound 55, 6-bromo-2-(4-bromophenyl)-1H-indole] | > 64 | 56.9 | – | –
24 | O=C(Nc1nc2ccccc2s1)c1cc(Br)ccc1O [Compound 56] | > 64 | – | 76 | –
25 | Brc1ccc(-c2c[nH]c3cc(Br)ccc23)cc1 [Compound 57, 6-bromo-3-(4-bromophenyl)-1H-indole] | 2 (≈ 5.7 µM) | – | – | IC50 (MRSA PK; [1]): 102 nM
26 | Oc1ccc(Br)cc1/C=N/c1nc2ccc(Br)cc2s1 [Compound 58] | 64 (≈ 155 µM) | – | 77 | –
27 | Brc1ccc(-c2cccc(-c3cc4ccccc4[nH]3)c2)cc1 [Compound 59, 2-(4′-Bromo-[1,1′-biphenyl]-3-yl)-1H-indole] | > 64 | – | 54 | –
28 | Brc1ccc(-c2cncc(-c3cc4ccccc4[nH]3)n2)cc1 [Compound 60, 2-(6-(4-Bromophenyl)pyrazin-2-yl)-1H-indole] | > 64 | – | 79 | –
29 | Brc1ccc(-c2ccc(-c3cncc(-c4cc5ccccc5[nH]4)n3)cc2)cc1 [Compound 61, 2-(6-(4′-Bromo-[1,1′-biphenyl]-4-yl)pyrazin-2-yl)-1H-indole] | > 64 | – | – | inhibition at 0.1 µM (MRSA PK; read-out: % inhibition (IC50)): 61%
30 | O=C(Nc1cc(Br)ccc1O)c1cc2ccc(Br)cc2[nH]1 [Compound 62, 6-Bromo-N-(5-bromo-2-hydroxyphenyl)-1H-indole-2-carboxamide] | > 64 | 12.3 | – | –
31 | O=C(Nc1ccc(Br)cc1)c1cc2ccc(Br)cc2[nH]1 [Compound 63, 6-Bromo-N-(4-bromophenyl)-1H-indole-2-carboxamide] | > 64 | 9.7 | – | –
32 | O=C(Nc1cccc(Br)c1O)c1cc2ccc(Br)cc2[nH]1 [Compound 64, 6-Bromo-N-(3-bromo-2-hydroxyphenyl)-1H-indole-2-carboxamide] | > 64 | – | – | IC50 (MRSA PK; [1]): 116 nM
